Values after ≈ are worked out from the molar mass of the structure shown. Where a SMILES comes first, the peptide text is derived from it.
Test: Solubility in CPME (cyclopentyl methyl ether), dissolved to saturation at 25° C.
Assay type: physicochemical
Details: dissolved to saturation in CPME (cyclopentyl methyl ether) at 25° C.
Method: Peptide used as a model: H-Phe-Leu-Gly-OH
H-Phe-Leu-Gly-OH and H-Phe-Leu-Gly-O-(TIPS2-4,4′-diClTrt) were synthesized, and the respective compounds were dissolved to saturation in CPME (cyclopentyl methyl ether) at 25° C. Thus, the solubilities were measured.

Compound	solubility [mM]
CC(C)C[C@H](NC(=O)[C@@H](N)Cc1ccccc1)C(=O)NCC(=O)O [H-Phe-Leu-Gly-OH] (H-Phe-Leu-Gly-OH)	0.9 (≈ 0.302 mg/mL)
CC(C)C[C@H](NC(=O)[C@@H](N)Cc1ccccc1)C(=O)NCC(=O)OC(c1ccc(Cl)cc1)(c1ccc(Cl)cc1)c1cc(OCCCCCCCCCCCO[Si](C(C)C)(C(C)C)C(C)C)cc(OCCCCCCCCCCCO[Si](C(C)C)(C(C)C)C(C)C)c1 [H-Phe-Leu-Gly-O-(TIPS2-4,4′-diClTrt)]	≥ 1030
